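Method: 48-hour compound exposure of cells in 96-well plates, five concentrations, linear interpolation of endpoints. The concentration for 50% growth inhibition is given as GI50. Definition used: TGI = concentration required for complete inhibition of growth.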
Columns and labels:
Assay in all cases: DTP human tumour cell line panel, 48 h
786-0 renal = system: 786-0 renal
A498 renal = system: A498 renal
A549 NSCLC = system: A549 NSCLC
ACHN renal = system: ACHN renal
BT-549 breast = system: BT-549 breast
CAKI-1 renal = system: CAKI-1 renal
CCRF-CEM leukemia = system: CCRF-CEM leukemia
COLO 205 colon = system: COLO 205 colon
DU-145 prostate = system: DU-145 prostate
EKVX NSCLC = system: EKVX NSCLC
HCC-2998 colon = system: HCC-2998 colon
HCT-116 colon = system: HCT-116 colon
HCT-15 colon = system: HCT-15 colon
HL-60(TB) leukemia = system: HL-60(TB) leukemia
HOP-62 NSCLC = system: HOP-62 NSCLC
HOP-92 NSCLC = system: HOP-92 NSCLC
HS 578T breast = system: HS 578T breast
HT29 colon = system: HT29 colon
IGROV1 ovarian = system: IGROV1 ovarian
K-562 leukemia = system: K-562 leukemia
KM12 colon = system: KM12 colon
LOX IMVI melanoma = system: LOX IMVI melanoma
M14 melanoma = system: M14 melanoma
MALME-3M melanoma = system: MALME-3M melanoma
MCF7 breast = system: MCF7 breast
MDA-MB-231 breast = system: MDA-MB-231 breast
MDA-MB-435 = system: MDA-MB-435
MDA-MB-468 breast = system: MDA-MB-468 breast
MOLT-4 leukemia = system: MOLT-4 leukemia
NCI-H226 lung = system: NCI-H226 lung
NCI-H23 lung = system: NCI-H23 lung
NCI-H460 lung = system: NCI-H460 lung
NCI-H522 lung = system: NCI-H522 lung
OVCAR-3 ovarian = system: OVCAR-3 ovarian
OVCAR-4 ovarian = system: OVCAR-4 ovarian
OVCAR-5 ovarian = system: OVCAR-5 ovarian
OVCAR-8 ovarian = system: OVCAR-8 ovarian
PC-3 prostate = system: PC-3 prostate
RPMI-8226 leukemia = system: RPMI-8226 leukemia
RXF 393 renal = system: RXF 393 renal
SF-268 CNS = system: SF-268 CNS
SF-295 CNS = system: SF-295 CNS
SF-539 CNS = system: SF-539 CNS
SK-MEL-28 melanoma = system: SK-MEL-28 melanoma
SK-MEL-5 melanoma = system: SK-MEL-5 melanoma
SK-OV-3 ovarian = system: SK-OV-3 ovarian
SN12C renal = system: SN12C renal
SNB-19 CNS = system: SNB-19 CNS
SNB-75 CNS = system: SNB-75 CNS
SW-620 colon = system: SW-620 colon
T-47D breast = system: T-47D breast
TK-10 renal = system: TK-10 renal
U251 CNS = system: U251 CNS
UACC-257 melanoma = system: UACC-257 melanoma
UACC-62 melanoma = system: UACC-62 melanoma
UO-31 renal = system: UO-31 renal

Compound: CCN(CC)c1ccnc(CNCCSC(c2ccccc2)(c2ccccc2)c2ccc(C)cc2)c1
- GI50 (786-0 renal): 1.71 µM
- TGI (786-0 renal): 3.21 µM
- GI50 (A498 renal): 12.4 µM
- TGI (A498 renal): 27.4 µM
- GI50 (A549 NSCLC): 4.98 µM
- TGI (A549 NSCLC): 20.6 µM
- GI50 (ACHN renal): 3.22 µM
- TGI (ACHN renal): 11.7 µM
- GI50 (BT-549 breast): 1.9 µM
- TGI (BT-549 breast): 5.46 µM
- GI50 (CAKI-1 renal): 3.11 µM
- TGI (CAKI-1 renal): 12.8 µM
- GI50 (CCRF-CEM leukemia): 1.96 µM
- TGI (CCRF-CEM leukemia): 5.19 µM
- GI50 (COLO 205 colon): 1.84 µM
- TGI (COLO 205 colon): 3.39 µM
- GI50 (DU-145 prostate): 2.92 µM
- TGI (DU-145 prostate): 8.29 µM
- GI50 (EKVX NSCLC): 1.78 µM
- TGI (EKVX NSCLC): 3.97 µM
- GI50 (HCC-2998 colon): 1.69 µM
- TGI (HCC-2998 colon): 3.07 µM
- GI50 (HCT-116 colon): 1.67 µM
- TGI (HCT-116 colon): 3.18 µM
- GI50 (HCT-15 colon): 1.67 µM
- TGI (HCT-15 colon): 3.15 µM
- GI50 (HL-60(TB) leukemia): 2.22 µM
- TGI (HL-60(TB) leukemia): 4.52 µM
- GI50 (HOP-62 NSCLC): 2.29 µM
- TGI (HOP-62 NSCLC): 6.21 µM
- GI50 (HOP-92 NSCLC): 1.62 µM
- TGI (HOP-92 NSCLC): 5.87 µM
- GI50 (HS 578T breast): 2.39 µM
- TGI (HS 578T breast): 7.84 µM
- GI50 (HT29 colon): 1.91 µM
- TGI (HT29 colon): 4.01 µM
- GI50 (IGROV1 ovarian): 3.21 µM
- TGI (IGROV1 ovarian): 12.3 µM
- GI50 (K-562 leukemia): 2.34 µM
- TGI (K-562 leukemia): 6.15 µM
- GI50 (KM12 colon): 2.33 µM
- TGI (KM12 colon): 5.79 µM
- GI50 (LOX IMVI melanoma): 1.67 µM
- TGI (LOX IMVI melanoma): 3.09 µM
- GI50 (M14 melanoma): 1.84 µM
- TGI (M14 melanoma): 3.68 µM
- GI50 (MALME-3M melanoma): 1.68 µM
- TGI (MALME-3M melanoma): 3.13 µM
- GI50 (MCF7 breast): 1.38 µM
- TGI (MCF7 breast): 2.85 µM
- GI50 (MDA-MB-231 breast): 1.99 µM
- TGI (MDA-MB-231 breast): 4.53 µM
- GI50 (MDA-MB-435): 2.26 µM
- TGI (MDA-MB-435): 5.38 µM
- GI50 (MDA-MB-468 breast): 1.83 µM
- TGI (MDA-MB-468 breast): 3.85 µM
- GI50 (MOLT-4 leukemia): 2.85 µM
- TGI (MOLT-4 leukemia): 7.28 µM
- GI50 (NCI-H226 lung): 4.45 µM
- TGI (NCI-H226 lung): 20.4 µM
- GI50 (NCI-H23 lung): 1.7 µM
- TGI (NCI-H23 lung): 3.27 µM
- GI50 (NCI-H460 lung): 1.98 µM
- TGI (NCI-H460 lung): 3.79 µM
- GI50 (NCI-H522 lung): 2.27 µM
- TGI (NCI-H522 lung): 5.61 µM
- GI50 (OVCAR-3 ovarian): 2.21 µM
- TGI (OVCAR-3 ovarian): 5.07 µM
- GI50 (OVCAR-4 ovarian): 3.7 µM
- TGI (OVCAR-4 ovarian): 14.5 µM
- GI50 (OVCAR-5 ovarian): 2.67 µM
- TGI (OVCAR-5 ovarian): 11.3 µM
- GI50 (OVCAR-8 ovarian): 2.49 µM
- TGI (OVCAR-8 ovarian): 6.12 µM
- GI50 (PC-3 prostate): 2.27 µM
- TGI (PC-3 prostate): 7.77 µM
- GI50 (RPMI-8226 leukemia): 2.05 µM
- TGI (RPMI-8226 leukemia): 4.88 µM
- GI50 (RXF 393 renal): 2.23 µM
- TGI (RXF 393 renal): 7.24 µM
- GI50 (SF-268 CNS): 3.35 µM
- TGI (SF-268 CNS): 13 µM
- GI50 (SF-295 CNS): 1.59 µM
- TGI (SF-295 CNS): 3.01 µM
- GI50 (SF-539 CNS): 1.87 µM
- TGI (SF-539 CNS): 3.52 µM
- GI50 (SK-MEL-28 melanoma): 1.86 µM
- TGI (SK-MEL-28 melanoma): 4.16 µM
- GI50 (SK-MEL-5 melanoma): 1.73 µM
- TGI (SK-MEL-5 melanoma): 3.12 µM
- GI50 (SK-OV-3 ovarian): 3.31 µM
- TGI (SK-OV-3 ovarian): 11.5 µM
- GI50 (SN12C renal): 2.4 µM
- TGI (SN12C renal): 6.29 µM
- GI50 (SNB-19 CNS): 3.13 µM
- TGI (SNB-19 CNS): 12 µM
- GI50 (SNB-75 CNS): 2.87 µM
- TGI (SNB-75 CNS): 14.1 µM
- GI50 (SW-620 colon): 2.47 µM
- TGI (SW-620 colon): 6.86 µM
- GI50 (T-47D breast): 2.5 µM
- TGI (T-47D breast): 9.04 µM
- GI50 (TK-10 renal): 4.37 µM
- TGI (TK-10 renal): 17 µM
- GI50 (U251 CNS): 2.14 µM
- TGI (U251 CNS): 6.02 µM
- GI50 (UACC-257 melanoma): 3.52 µM
- TGI (UACC-257 melanoma): 11.8 µM
- GI50 (UACC-62 melanoma): 2.64 µM
- TGI (UACC-62 melanoma): 8.33 µM
- GI50 (UO-31 renal): 2.66 µM
- TGI (UO-31 renal): 12.7 µM
